{
  "source": "patent US20260297070A1",
  "about": "“CYCLIC [COMPOUND LEFT OUT] WRN INHIBITORS” (Nimbus Wadjet, Inc., priority 2023, published 2026)",
  "data": [
    {"molecular_target": "T1, human Werner helicase (WRN-BV08, Uniprot Q14191, amino acids 517-1235 with L1074F point mutation) (Homo sapiens, UniProt Q14191, L1074F)", "T1 construct": "Uniprot Q14191, amino acids 517-1235 with L1074F point mutation; TEV-cleavable 8×His (C, cleaved yes); made in house; host or cells: Sf9 insect cells (baculovirus)", "T1 sequence (Q14191 with tags, fused parts or gaps L1074F limits assumed)": "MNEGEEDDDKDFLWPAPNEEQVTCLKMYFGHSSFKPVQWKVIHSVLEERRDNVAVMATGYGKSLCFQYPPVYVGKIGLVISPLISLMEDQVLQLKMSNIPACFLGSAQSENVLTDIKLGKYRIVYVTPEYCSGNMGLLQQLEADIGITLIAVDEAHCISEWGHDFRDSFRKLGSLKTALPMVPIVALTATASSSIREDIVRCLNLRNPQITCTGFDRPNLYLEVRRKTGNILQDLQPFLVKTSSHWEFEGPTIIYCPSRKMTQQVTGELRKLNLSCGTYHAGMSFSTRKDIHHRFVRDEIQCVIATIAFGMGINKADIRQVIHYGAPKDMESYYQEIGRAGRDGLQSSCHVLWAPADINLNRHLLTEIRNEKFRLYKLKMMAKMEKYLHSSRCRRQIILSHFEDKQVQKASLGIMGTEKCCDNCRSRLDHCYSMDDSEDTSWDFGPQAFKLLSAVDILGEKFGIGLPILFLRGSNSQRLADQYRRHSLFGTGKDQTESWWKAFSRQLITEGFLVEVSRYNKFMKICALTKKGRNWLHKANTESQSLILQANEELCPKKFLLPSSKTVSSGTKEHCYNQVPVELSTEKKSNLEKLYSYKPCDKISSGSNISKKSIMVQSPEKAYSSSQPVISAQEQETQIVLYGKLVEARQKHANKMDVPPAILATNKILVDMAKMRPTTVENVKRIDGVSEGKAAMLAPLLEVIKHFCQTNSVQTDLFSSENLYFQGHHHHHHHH", "assay": "WRN (BV08) ADP-Glo Assay", "format": "biochemical", "settings": "0.15 nM WRN, 5 μM ATP, 0.1 nM DNA duplex, 15 min preincubation, 60 min at 25° C., pH 7.5, 1% DMSO; read-out: ADP-Glo_hWRN_IC50", "outline": "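Untagged WRN (Sf9-expressed, TEV-cleaved) at 0.15 nM was preincubated 15 min at 25 °C with compound, then reacted 60 min at 25 °C with 5 μM ATP and 0.1 nM DNA duplex in Bicine pH 7.5, 1 mM MgCl2. ADP-Glo luminescence gave % inhibition; IC50 by four-parameter fit.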", "units": {"IC50": "nM"}, "values": [
      {"smiles": "CC(C)(O)c1cc(CN(C(=O)Cn2cc3cc(C(F)(F)F)ccc3n2)C2C=CS(=O)(=O)C2)ccn1", "note": "(single isomer, unassigned) [I-676]", "IC50": "< 500"},
      {"smiles": "CC(C)(O)c1cc(CN(C(=O)C(OC2CC2)c2ccc(-c3ccc(F)c(F)c3)cc2F)[C@@H]2C=CS(=O)(=O)C2)ccn1", "note": "(single isomer, unassigned) [I-681]", "IC50": "< 500"},
      {"smiles": "CC(C)(O)c1cc(CN(C(=O)C(c2ccc(-c3ccc(F)c(F)c3)cc2F)n2cccn2)[C@@H]2C=CS(=O)(=O)C2)ccn1", "note": "(single isomer, unassigned) [I-682]", "IC50": "< 500"},
      {"smiles": "COc1cc(CN(C(=O)C(c2ccc(-c3ccc(F)c(F)c3)cc2F)n2cc(OC(F)F)cn2)[C@@H]2C=CS(=O)(=O)C2)ccn1", "note": "(single isomer, unassigned) [I-685, (2R*)-2-[4-(difluoromethoxy)-1H-pyrazol-1-yl]-N-[(3R)-1,1-dioxo-2,3-dihydro-1lambda6-thiophen-3-yl]-N-[(2-methoxypyridin-4-yl)methyl]-2-{3,3′,4′-trifluoro-[1,1′-biphenyl]-4-yl}acetamide]", "IC50": "< 500"},
      {"smiles": "COc1cc(CN(C(=O)C(OCC#N)c2ccc(-c3ccc(F)c(F)c3)cc2F)[C@@H]2C=CS(=O)(=O)C2)ccn1", "note": "(single isomer, unassigned) [I-686, (2R*)-2-(cyanomethoxy)-N-[(3R)-1,1-dioxo-2,3-dihydro-1lambda6-thiophen-3-yl]-N-[(2-methoxypyridin-4-yl)methyl]-2-{3,3′,4′-trifluoro-[1,1′-biphenyl]-4-yl}acetamide]", "IC50": "500 to 5000"},
      {"smiles": "CNC(=O)C(C(=O)N(Cc1ccnc(C(C)(C)O)c1)C1C=CS(=O)(=O)C1)c1ccc(-c2ccc(F)c(F)c2)cc1F", "note": "(single isomer, unassigned) [I-689, (2R**)-N′-[(3R*)-1,1-dioxo-2,3-dihydro-1lambda6-thiophen-3-yl]-N′-{[2-(2-hydroxypropan-2-yl)pyridin-4-yl]methyl}-N-methyl-2-{3,3′,4′-trifluoro-[1,1′-biphenyl]-4-yl}propanediamide]", "IC50": "< 500"},
      {"smiles": "CNC(=O)C(C(=O)N(Cc1ccnc(C(C)(C)O)c1)C1C=CS(=O)(=O)C1)c1ccc(-c2ccc(F)c(F)c2)cc1F", "note": "(single isomer, unassigned) [I-690, (2R**)-N′-[(3R*)-1,1-dioxo-2,3-dihydro-1lambda6-thiophen-3-yl]-N′-{[2-(2-hydroxypropan-2-yl)pyridin-4-yl]methyl}-N-methyl-2-{3,3′,4′-trifluoro-[1,1′-biphenyl]-4-yl}propanediamide]", "IC50": "500 to 5000"},
      {"smiles": "COc1cc(CN(C(=O)C(OCC#N)c2ccc(-c3ccc(F)c(F)c3)cc2F)[C@@H]2C=CS(=O)(=O)C2)ccn1", "note": "(single isomer, unassigned) [I-692, (2R*)-2-(cyanomethoxy)-N-[(3R)-1,1-dioxo-2,3-dihydro-1lambda6-thiophen-3-yl]-N-[(2-methoxypyridin-4-yl)methyl]-2-{3,3′,4′-trifluoro-[1,1′-biphenyl]-4-y]}acetamide]", "IC50": "10000 to 50000"},
      {"smiles": "CNC(=O)C(C(=O)N(Cc1ccnc(OC)c1)[C@@H]1C=CS(=O)(=O)C1)c1ccc(-c2ccc(F)c(F)c2)cc1F", "note": "(single isomer, unassigned) [I-693, (2R*)-N′-[(3R)-1,1-dioxo-2,3-dihydro-1lambda6-thiophen-3-yl]-N′-[(2-methoxypyridin-4-yl)methyl]-N-methyl-2-{3,3′,4′-trifluoro-[1,1′-biphenyl]-4-yl}propanediamide]", "IC50": "< 500"},
      {"smiles": "CNC(=O)C(C(=O)N(Cc1ccnc(OC)c1)[C@@H]1C=CS(=O)(=O)C1)c1ccc(-c2ccc(F)c(F)c2)cc1F", "note": "(single isomer, unassigned) [I-694, (2R*)-N′-[(3R)-1,1-dioxo-2,3-dihydro-1lambda6-thiophen-3-yl]-N′-[(2-methoxypyridin-4-yl)methyl]-N-methyl-2-{3,3′,4′-trifluoro-[1,1′-biphenyl]-4-yl}propanediamide]", "IC50": "< 500"},
      {"smiles": "COc1cc(CN(C(=O)C(c2ccc(-c3ccc(F)c(F)c3)cc2F)n2cc(OC(F)F)cn2)[C@@H]2C=CS(=O)(=O)C2)ccn1", "note": "(single isomer, unassigned) [I-696, (2R*)-2-[4-(difluoromethoxy)-1H-pyrazol-1-yl]-N-[(3R)-1,1-dioxo-2,3-dihydro-1lambda6-thiophen-3-yl]-N-[(2-methoxypyridin-4-yl)methyl]-2-{3,3′,4′-trifluoro-[1,1′-biphenyl]-4-yl}acetamide]", "IC50": "> 50000"},
      {"smiles": "COc1cc(CN(C(=O)C(c2ccc(-c3ccc(F)c(F)c3)cc2F)n2cc(C(F)F)cn2)[C@@H]2C=CS(=O)(=O)C2)ccn1", "note": "(single isomer, unassigned) [I-701, (2R*)-2-[4-(difluoromethyl)-1H-pyrazol-1-yl]-N-[(3R)-1,1-dioxo-2,3-dihydro-1lambda6-thiophen-3-yl]-N-[(2-methoxypyridin-4-yl)methyl]-2-{3,3′,4′-trifluoro-[1,1′-biphenyl]-4-yl}acetamide]", "IC50": "< 500"},
      {"smiles": "COc1cc(CN(C(=O)C(OCCS(C)(=O)=O)c2ccc(-c3ccc(F)c(F)c3)cc2F)[C@@H]2C=CS(=O)(=O)C2)ccn1", "note": "(single isomer, unassigned) [I-702, (2R*)-N-[(3R)-1,1-dioxo-2,3-dihydro-1lambda6-thiophen-3-yl]-2-(2-methanesulfonylethoxy)-N-[(2-methoxypyridin-4-yl)methyl]-2-{3,3′,4′-trifluoro-[1,1′-biphenyl]-4-yl}acetamide]", "IC50": "500 to 5000"},
      {"smiles": "COc1cc(CN(C(=O)C(c2ccc(-c3ccc(F)c(F)c3)cc2F)n2cc(C#N)cn2)[C@@H]2C=CS(=O)(=O)C2)ccn1", "note": "(single isomer, unassigned) [I-703, (2R*)-2-(4-cyano-1H-pyrazol-1-yl)-N-[(3R)-1,1-dioxo-2,3-dihydro-1lambda6-thiophen-3-yl]-N-[(2-methoxypyridin-4-yl)methyl]-2-{3,3′,4′-trifluoro-[1,1′-biphenyl]-4-yl}acetamide]", "IC50": "< 500"},
      {"smiles": "CC(C)(O)c1cc(CN(C(=O)Cn2cc(-c3ccc(F)c(F)c3F)cn2)C2C=CS(=O)(=O)C2)ccn1", "note": "(single isomer, unassigned) [I-704]", "IC50": "< 500"},
      {"smiles": "CC(C)(O)c1csc(CN(C(=O)Cc2ccc(S(F)(F)(F)(F)F)cc2)C2C=CS(=O)(=O)C2)n1", "note": "(single isomer, unassigned) [I-708]", "IC50": "5000 to 10000"},
      {"smiles": "CC(C)(O)c1csc(CN(C(=O)Cc2ccc(S(F)(F)(F)(F)F)cc2)C2C=CS(=O)(=O)C2)n1", "note": "(single isomer, unassigned) [I-709]", "IC50": "< 500"},
      {"smiles": "COc1cc(CN(C(=O)C(OCCS(C)(=O)=O)c2ccc(-c3ccc(F)c(F)c3)cc2F)[C@@H]2C=CS(=O)(=O)C2)ccn1", "note": "(single isomer, unassigned) [I-710, (2R*)-N-[(3R)-1,1-dioxo-2,3-dihydro-1lambda6-thiophen-3-yl]-2-(2-methanesulfonylethoxy)-N-[(2-methoxypyridin-4-yl)methyl]-2-{3,3′,4′-trifluoro-[1,1′-biphenyl]-4-yl}acetamide]", "IC50": "> 50000"},
      {"smiles": "COc1cc(CN(C(=O)C(c2ccc(-c3ccc(F)c(F)c3)cc2F)n2cc(C(F)F)cn2)[C@@H]2C=CS(=O)(=O)C2)ccn1", "note": "(single isomer, unassigned) [I-711, (2R*)-2-[4-(difluoromethyl)-1H-pyrazol-1-yl]-N-[(3R)-1,1-dioxo-2,3-dihydro-1lambda6-thiophen-3-yl]-N-[(2-methoxypyridin-4-yl)methyl]-2-{3,3′,4′-trifluoro-[1,1′-biphenyl]-4-yl}acetamide]", "IC50": "> 50000"}
    ]}
  ]
}
